Reference: the supplement of paper PMC10307832

What was measured:
Test in all cases: relative viability (nuclei count vs DMSO), 5 days (fraction); higher = more cells survive
A549 = test system: A549
In short: (§1)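 Relative viability was taken as the ratio of nuclei in treated wells to nuclei in vehicle wells. Lung cancer cell lines in 1536-well plates received compounds by pin tool one day after seeding, either one drug alone or a fixed anchor-drug dose plus five library-drug doses (not always all listed) in √10 steps. Nuclei were counted on 4× images after 5 days of treatment, and values are medians of duplicate plates.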

Calu-6 = test system: Calu-6
In short: as §1

EBC-1 = test system: EBC-1
In short: as §1

HCC-366 = test system: HCC-366
In short: as §1

HCC-44 = test system: HCC-44
In short: as §1

IA-LM = test system: IA-LM
In short: as §1

LOU-NH91 = test system: LOU-NH91
In short: as §1

LXF-289 = test system: LXF-289
In short: as §1

NCI-H1299 = test system: NCI-H1299
In short: as §1

NCI-H1437 = test system: NCI-H1437
In short: as §1

NCI-H1703 = test system: NCI-H1703
In short: as §1

NCI-H2085 = test system: NCI-H2085
In short: as §1

NCI-H3122 = test system: NCI-H3122
In short: as §1

Cc1sc2c(c1C)C(c1ccc(Cl)cc1)=N[C@@H](CC(=O)OC(C)(C)C)c1nnc(C)n1-2 [JQ1] + C[C@]1(O)C[C@@H](c2nc(-c3ccc4ccc(-c5ccccc5)nc4c3)c3c(N)nccn32)C1 [Linsitinib] (partner 1 µM)
relative viability (A549; first compound 0.04 µM): 0.613 | relative viability (A549; first compound 0.1265 µM): 0.534 | relative viability (A549; first compound 0.4 µM): 0.561 | relative viability (A549; first compound 1.265 µM): 0.314 | relative viability (A549; first compound 4 µM): 0.226 | relative viability (Calu-6; first compound 0.04 µM): 0.931 | relative viability (Calu-6; first compound 0.1265 µM): 0.793 | relative viability (Calu-6; first compound 0.4 µM): 0.905 | relative viability (Calu-6; first compound 1.265 µM): 0.639 | relative viability (Calu-6; first compound 4 µM): 0.313 | relative viability (EBC-1; first compound 0.04 µM): 0.8 | relative viability (EBC-1; first compound 0.1265 µM): 0.523 | relative viability (EBC-1; first compound 0.4 µM): 0.332 | relative viability (EBC-1; first compound 1.265 µM): 0.112 | relative viability (EBC-1; first compound 4 µM): 0.112 | relative viability (HCC-366; first compound 0.04 µM): 0.6 | relative viability (HCC-366; first compound 0.4 µM): 0.639 | relative viability (HCC-366; first compound 1.265 µM): 0.326 | relative viability (HCC-366; first compound 4 µM): 0.193 | relative viability (HCC-44; first compound 0.04 µM): 0.704 | relative viability (HCC-44; first compound 0.1265 µM): 0.448 | relative viability (HCC-44; first compound 0.4 µM): 0.32 | relative viability (HCC-44; first compound 1.265 µM): 0.31 | relative viability (HCC-44; first compound 4 µM): 0.283 | relative viability (IA-LM; first compound 0.04 µM): 0.406 | relative viability (IA-LM; first compound 0.1265 µM): 0.098 | relative viability (IA-LM; first compound 0.4 µM): 0.153 | relative viability (IA-LM; first compound 1.265 µM): 0.106 | relative viability (IA-LM; first compound 4 µM): 0.0793 | relative viability (LOU-NH91; first compound 0.04 µM): 0.905 | relative viability (LOU-NH91; first compound 0.1265 µM): 0.777 | relative viability (LOU-NH91; first compound 0.4 µM): 0.579 | relative viability (LOU-NH91; first compound 1.265 µM): 0.474 | relative viability (LOU-NH91; first compound 4 µM): 0.489 | relative viability (LXF-289; first compound 0.04 µM): 0.986 | relative viability (LXF-289; first compound 0.1265 µM): 0.968 | relative viability (LXF-289; first compound 0.4 µM): 0.903 | relative viability (LXF-289; first compound 1.265 µM): 0.761 | relative viability (LXF-289; first compound 4 µM): 0.34 | relative viability (NCI-H1299; first compound 0.04 µM): 0.97 | relative viability (NCI-H1299; first compound 0.1265 µM): 0.781 | relative viability (NCI-H1299; first compound 0.4 µM): 0.883 | relative viability (NCI-H1299; first compound 1.265 µM): 0.36 | relative viability (NCI-H1299; first compound 4 µM): 0.238 | relative viability (NCI-H1437; first compound 0.04 µM): 0.897 | relative viability (NCI-H1437; first compound 0.1265 µM): 0.804 | relative viability (NCI-H1437; first compound 0.4 µM): 0.481 | relative viability (NCI-H1437; first compound 1.265 µM): 0.228 | relative viability (NCI-H1437; first compound 4 µM): 0.18 | relative viability (NCI-H1703; first compound 0.04 µM): 0.95 | relative viability (NCI-H1703; first compound 0.4 µM): 0.404 | relative viability (NCI-H1703; first compound 1.265 µM): 0.33 | relative viability (NCI-H1703; first compound 4 µM): 0.396 | relative viability (NCI-H2085; first compound 0.04 µM): 0.99 | relative viability (NCI-H2085; first compound 0.1265 µM): 0.652 | relative viability (NCI-H2085; first compound 0.4 µM): 0.642 | relative viability (NCI-H2085; first compound 1.265 µM): 0.687 | relative viability (NCI-H2085; first compound 4 µM): 0.453 | relative viability (NCI-H3122; first compound 0.04 µM): 0.966 | relative viability (NCI-H3122; first compound 0.1265 µM): 0.931 | relative viability (NCI-H3122; first compound 0.4 µM): 0.97 | relative viability (NCI-H3122; first compound 1.265 µM): 0.757 | relative viability (NCI-H3122; first compound 4 µM): 0.625

Cc1sc2c(c1C)C(c1ccc(Cl)cc1)=N[C@@H](CC(=O)OC(C)(C)C)c1nnc(C)n1-2 [JQ1] + Cc1nc(NC(=O)N2CCC[C@H]2C(N)=O)sc1-c1ccnc(C(C)(C)C(F)(F)F)c1 [Alpelisib] (partner 2 µM)
relative viability (A549; first compound 0.04 µM): 0.785 | relative viability (A549; first compound 0.1265 µM): 0.644 | relative viability (A549; first compound 0.4 µM): 0.509 | relative viability (A549; first compound 1.265 µM): 0.401 | relative viability (A549; first compound 4 µM): 0.262 | relative viability (Calu-6; first compound 0.04 µM): 0.955 | relative viability (Calu-6; first compound 0.1265 µM): 0.815 | relative viability (Calu-6; first compound 0.4 µM): 0.818 | relative viability (Calu-6; first compound 1.265 µM): 0.589 | relative viability (Calu-6; first compound 4 µM): 0.4 | relative viability (EBC-1; first compound 0.04 µM): 0.885 | relative viability (EBC-1; first compound 0.1265 µM): 0.454 | relative viability (EBC-1; first compound 0.4 µM): 0.226 | relative viability (EBC-1; first compound 1.265 µM): 0.142 | relative viability (EBC-1; first compound 4 µM): 0.149 | relative viability (HCC-366; first compound 0.04 µM): 0.405 | relative viability (HCC-366; first compound 0.4 µM): 0.404 | relative viability (HCC-366; first compound 1.265 µM): 0.233 | relative viability (HCC-366; first compound 4 µM): 0.215 | relative viability (HCC-44; first compound 0.04 µM): 0.809 | relative viability (HCC-44; first compound 0.1265 µM): 0.518 | relative viability (HCC-44; first compound 0.4 µM): 0.37 | relative viability (HCC-44; first compound 1.265 µM): 0.251 | relative viability (HCC-44; first compound 4 µM): 0.238 | relative viability (IA-LM; first compound 0.04 µM): 0.772 | relative viability (IA-LM; first compound 0.1265 µM): 0.324 | relative viability (IA-LM; first compound 0.4 µM): 0.143 | relative viability (IA-LM; first compound 1.265 µM): 0.0875 | relative viability (IA-LM; first compound 4 µM): 0.103 | relative viability (LOU-NH91; first compound 0.04 µM): 0.683 | relative viability (LOU-NH91; first compound 0.1265 µM): 0.664 | relative viability (LOU-NH91; first compound 0.4 µM): 0.458 | relative viability (LOU-NH91; first compound 1.265 µM): 0.491 | relative viability (LOU-NH91; first compound 4 µM): 0.473 | relative viability (LXF-289; first compound 0.04 µM): 1.02 | relative viability (LXF-289; first compound 0.1265 µM): 0.983 | relative viability (LXF-289; first compound 0.4 µM): 0.97 | relative viability (LXF-289; first compound 1.265 µM): 0.718 | relative viability (LXF-289; first compound 4 µM): 0.634 | relative viability (NCI-H1299; first compound 0.04 µM): 1.02 | relative viability (NCI-H1299; first compound 0.1265 µM): 0.947 | relative viability (NCI-H1299; first compound 0.4 µM): 0.951 | relative viability (NCI-H1299; first compound 1.265 µM): 0.514 | relative viability (NCI-H1299; first compound 4 µM): 0.353 | relative viability (NCI-H1437; first compound 0.04 µM): 0.871 | relative viability (NCI-H1437; first compound 0.1265 µM): 0.803 | relative viability (NCI-H1437; first compound 0.4 µM): 0.515 | relative viability (NCI-H1437; first compound 1.265 µM): 0.284 | relative viability (NCI-H1437; first compound 4 µM): 0.216 | relative viability (NCI-H1703; first compound 0.04 µM): 0.315 | relative viability (NCI-H1703; first compound 0.1265 µM): 0.335 | relative viability (NCI-H1703; first compound 0.4 µM): 0.297 | relative viability (NCI-H1703; first compound 1.265 µM): 0.26 | relative viability (NCI-H1703; first compound 4 µM): 0.321 | relative viability (NCI-H2085; first compound 0.04 µM): 0.975 | relative viability (NCI-H2085; first compound 0.1265 µM): 0.844 | relative viability (NCI-H2085; first compound 0.4 µM): 0.824 | relative viability (NCI-H2085; first compound 1.265 µM): 0.595 | relative viability (NCI-H2085; first compound 4 µM): 0.549 | relative viability (NCI-H3122; first compound 0.04 µM): 0.833 | relative viability (NCI-H3122; first compound 0.1265 µM): 0.771 | relative viability (NCI-H3122; first compound 0.4 µM): 0.963 | relative viability (NCI-H3122; first compound 1.265 µM): 0.661 | relative viability (NCI-H3122; first compound 4 µM): 0.663
